One may read the inhibition as the share of the control response that was lost under treatment. By IC90 is commonly meant the concentration at which the effect reaches the 90% level. The low end stands for an effect from little substance, the high end for a need for much substance. One may read the IC50 as the concentration that gives 50% inhibition.

Data set [1] is described as follows: Aggregation property of the compound in ammonium acetate buffer at pH 7.6 assessed as particle size at 100 uM in absence of Triton X-100 by dynamic light scattering method. Type of data set: physicochemical. As to conditions: pH 7.6, 100 µM.
Data set [2] deals with Mycobacterium tuberculosis. In words: Inhibition of Mycobacterium tuberculosis shikimate kinase assessed as reduction in S3P production at <50 uM pre-incubated for 30 mins before ATP and shikimate substrate addition by LC-MS assay.
Data set [3] has as its system Mycobacterium tuberculosis. In words: Antimycobacterial activity against Mycobacterium tuberculosis H37Rv. In kind it is functional.
Data set [4] can be described thus: Aggregation property of the compound in ammonium acetate buffer at pH 7.6 assessed as particle size at 100 uM in presence of Triton X-100 by dynamic light scattering method. Type of data set: physicochemical. As to conditions: pH 7.6, 100 µM.
The nature of data set [5]: Aggregation property of the compound in water at pH 7 assessed as particle size at 100 uM in absence of Triton X-100 by dynamic light scattering method. In kind it is physicochemical. As to conditions: buffer, pH 7, 100 µM.
Data set [6] in a line: Aggregation property of the compound in ammonium acetate buffer at pH 7.6 assessed as light scattering intensity counts at 100 uM in presence of Triton X-100 by dynamic light scattering method. In kind it is physicochemical. As to conditions: pH 7.6, 100 µM.
The nature of data set [7]: Aggregation property of the compound in water at pH 7 assessed as light scattering intensity counts at 100 uM in absence of Triton X-100 by dynamic light scattering method. Type of data set: physicochemical. As to conditions: buffer, pH 7, 100 µM.
The nature of data set [8]: Aggregation property of the compound in ammonium acetate buffer at pH 7.6 assessed as light scattering intensity counts at 100 uM in absence of Triton X-100 by dynamic light scattering method. In kind it is physicochemical. As to conditions: pH 7.6, 100 µM.
The nature of data set [9]: Aggregation property of the compound in water at pH 7 assessed as light scattering intensity counts at 100 uM in presence of Triton X-100 by dynamic light scattering method. Type of data set: physicochemical. As to conditions: buffer, pH 7, 100 µM.
Data set [10] in a line: Aggregation property of the compound in water at pH 7 assessed as particle size at 100 uM in presence of Triton X-100 by dynamic light scattering method. In kind it is physicochemical. As to conditions: buffer, pH 7, 100 µM.
Data set [11] has as its system Mycobacterium tuberculosis. In words: Inhibition of Mycobacterium tuberculosis shikimate kinase assessed as reduction in S3P production at 100 uM pre-incubated with 0.2 uM enzyme for 30 mins before ATP and shikimate substrate addition in presence of Triton X-100 by LC-MS assay.
The nature of data set [12]: Aggregation property of the compound in ammonium acetate buffer at pH 7.6 assessed as particle size at 100 uM in presence of Triton X-100 by transmission electron microscopy. As to conditions: pH 7.6, 100 µM. Type of data set: physicochemical.
Data set [13] has as its system Mycobacterium tuberculosis. In words: Inhibition of Mycobacterium tuberculosis shikimate kinase assessed as reduction in S3P production at 100 uM pre-incubated with 0.2 uM enzyme for 30 mins before ATP and shikimate substrate addition in absence of Triton X-100 by LC-MS assay.
The subject of data set [14] is Mycobacterium tuberculosis. In words: Inhibition of Mycobacterium tuberculosis shikimate kinase assessed as reduction in S3P production at 100 uM pre-incubated with 0.02 uM enzyme for 30 mins before ATP and shikimate substrate addition in presence of Triton X-100 by LC-MS assay.
Data set [15] is described as follows: Aggregation property of the compound in ammonium acetate buffer at pH 7.6 assessed as particle size at 100 uM in absence of Triton X-100 by transmission electron microscopy. In kind it is physicochemical. As to conditions: pH 7.6, 100 µM.
Data set [16] can be described thus: Inhibition of Mycobacterium tuberculosis shikimate kinase assessed as reduction in S3P production […] pre-incubated with 0.015 uM enzyme for 30 mins before ATP and shikimate substrate addition by LC-MS assay.
The subject of data set [17] is Mycobacterium tuberculosis. In words: Inhibition of Mycobacterium tuberculosis shikimate kinase assessed as reduction in S3P production at 100 uM pre-incubated with 0.02 uM enzyme for 30 mins before ATP and shikimate substrate addition in absence of Triton X-100 by LC-MS assay.

Converted amounts (≈) assume the structure as drawn.

Turning to `CCSc1ccc(C(=O)Nc2nnc(-c3ccc4c(c3)CCCC4)o2)cc1`, the Activity was 2005 nm in data set [1]; 480 nm in data set [4]; 1921 nm in data set [5]; 158 kCounts in [6]; 330 kCounts in [7]; 340 kCounts in data set [8]. For the same compound, the Activity in data set [9] is 152 kCounts; in data set [10], 410 nm. Besides, the inhibition in data set [2] is over 90%. This compound yielded a 90% effect concentration (IC90) in data set [3] of 1.93 µg/mL (≈ 5.09 µM).
On to `CC(C)(C)C(=O)Nc1nnc(-c2ccc(Br)cc2)o1`, for which the Activity in data set [1] worked out at 1211 nm; in data set [4] it was 201 nm; in [5], 1192 nm; in data set [6] it was 100 kCounts; in [7], 250 kCounts; in [8] it was 260 kCounts. Moreover, the values for the Activity in data set [9] and in data set [10] were 92 kCounts and 198 nm, respectively. Moreover, in [2], the inhibition is over 90%. Further, the IC90 in [3] is under 0.2 µg/mL.
Consider `CCCCC(=O)Nc1nnc(-c2ccc3c(c2)CCCC3)o1`, for which the Activity in data set [1] was 1432 nm; in data set [4], 255 nm; in data set [5] it was 1324 nm; in data set [6], 131 kCounts; in data set [7], 260 kCounts; in [8] it was 280 kCounts. The Activity in data set [9] is 100 kCounts; in [10] it was 259 nm. Further, the inhibition in data set [2] was over 90%. Moreover, in data set [3], it took 3.04 µg/mL (≈ 10.2 µM) to reach the 90% level (IC90).
As for `CCOc1ccc(C(=O)Nc2nnc(-c3ccc(C)cc3C)o2)cc1`, the Activity in [1] is 1620 nm; in data set [4], 354 nm; in [5] it was 1583 nm; in [6], 123 kCounts; in data set [7], 280 kCounts; in data set [8], 300 kCounts. Moreover, the values for the Activity in [9] and in [10] were 122 kCounts and 275 nm, respectively. Besides, in data set [2], the inhibition was over 90%. Moreover, in data set [3], it took 1.8 µg/mL (≈ 5.34 µM) to reach the 90% level (IC90).
Regarding `CSc1ccc2nc(Nc3nc4ccc(NC(C)=O)cc4s3)sc2c1`, the inhibition is 0% in data set [11]; over 90% in data set [2]; 0% in data set [13]; 0% in [14]; 97.4% in [17]. Besides, the Activity in data set [1] stood at 1531 nm; in [4] it was 271 nm; in [5], 1438 nm; in data set [6], 122 kCounts; in data set [7], 270 kCounts; in data set [8], 285 kCounts. Besides, the Activity is on record as 0.03 um in data set [12], 115 kCounts in data set [9], 0.7 um in data set [15] and 275 nm in data set [10]. Further, in data set [3], the IC90 is under 0.2 µg/mL. Also, the IC50 in data set [16] came out at 60.6 µM.
For `O=C(/C=C/c1ccccc1)Nc1nnc(-c2ccc3c(c2)CCCC3)o1`, the inhibition in [11] was 0%; in [2], over 90%; in data set [13], 0%; in data set [14], 0%; in data set [17] it was 95%. Moreover, the Activity amounted to 1820 nm in data set [1]; 390 nm in data set [4]; 1820 nm in data set [5]; 141 kCounts in data set [6]; 306 kCounts in data set [7]; 310 kCounts in [8]. For the same compound, the Activity is reported as 138 kCounts in data set [9] and 353 nm in [10]. In data set [3], this compound yielded an IC90 of 1.68 µg/mL (≈ 4.86 µM). The IC50 in data set [16] was found to be 58.4 µM.
Take `CCc1cccc2sc(N(CCCn3ccnc3)C(=O)/C=C/c3cccs3)nc12`: the Activity came out at 3776 nm in data set [1]; 817 nm in [4]; 3823 nm in data set [5]; 286 kCounts in data set [6]; 380 kCounts in [7]; 400 kCounts in data set [8]. Further, the Activity in [9] is 270 kCounts; in data set [10] it was 908 nm. For the same compound, the inhibition in data set [2] was over 90%. Further, in [3], the IC90 turned out to be 0.83 µg/mL (≈ 1.96 µM).
In the case of `O=C(Nc1nnc(-c2ccccc2Cl)o1)c1cccc(Oc2ccccc2)c1`, the inhibition is 0% in [11]; over 90% in data set [2]; 0% in [13]; 0% in data set [14]; 90% in data set [17]. In addition, the Activity in data set [1] stood at 2850 nm; in [4] it was 516 nm; in data set [5] it was 2423 nm; in data set [6], 180 kCounts; in data set [7], 330 kCounts; in data set [8], 350 kCounts. Besides, the Activity in data set [9] came out at 170 kCounts; in data set [10], 481 nm. Besides, it took 0.86 µg/mL (≈ 2.19 µM) to reach the 90% level in data set [3] (IC90). In addition, the IC50 in data set [16] stood at 38.7 µM.
For the compound `Cc1ccc(-c2nnc(NC(=O)c3ccc([N+](=O)[O-])o3)o2)c(C)c1`, the inhibition was 0% in data set [11]; over 90% in [2]; 0% in data set [13]; 0% in data set [14]; 91.6% in [17]. Also, the Activity is 851 nm in data set [1]; 131 nm in data set [4]; 823 nm in [5]; 83 kCounts in [6]; 182 kCounts in data set [7]; 190 kCounts in [8]. The Activity in [9] is listed as 72 kCounts; in data set [10], 131 nm. It took 0.69 µg/mL (≈ 2.1 µM) to reach the 90% level in data set [3] (IC90). Also, the IC50 in data set [16] was 65.7 µM.
As for `Cc1ccc(-c2nnc(NC(=O)c3ccccc3Cl)o2)c(C)c1`, the Activity in [1] is 1321 nm; in data set [4] it was 212 nm; in data set [5] it was 1301 nm; in data set [6] it was 115 kCounts; in data set [7], 255 kCounts; in data set [8], 270 kCounts. Also, the results for the Activity in data set [9] and in data set [10] were 95 kCounts and 203 nm, respectively. The inhibition in data set [2] was over 90%. The compound further yielded an IC90 in data set [3] of under 0.2 µg/mL.
Take `Cc1ccc(C)c(-c2nnc(NC(=O)c3ccc([N+](=O)[O-])s3)o2)c1`: the Activity was 986 nm in [1]; 151 nm in data set [4]; 973 nm in data set [5]; 85 kCounts in data set [6]; 237 kCounts in data set [7]; 240 kCounts in data set [8]. Also, the figures for the Activity in data set [9] and in data set [10] were 80 kCounts and 176 nm, respectively. Moreover, the inhibition in [2] was over 90%. The compound also returned an IC90 in data set [3] of 3.09 µg/mL (≈ 8.97 µM).
Consider `O=C(c1cccs1)N(CCCn1ccnc1)c1nc2c(F)cc(F)cc2s1`, for which the Activity turned out to be 1934 nm in data set [1]; 470 nm in [4]; 1852 nm in [5]; 150 kCounts in [6]; 300 kCounts in [7]; 321 kCounts in data set [8]. Further, the results for the Activity in data set [9] and in data set [10] were 142 kCounts and 398 nm, respectively. Moreover, the inhibition in data set [2] is over 90%. It took 2.38 µg/mL (≈ 5.88 µM) to reach the 90% level in data set [3] (IC90).
In the case of `Cc1cc(C)c2sc(N3CCCC3)nc2c1`, the Activity in [1] was 1750 nm; in data set [4], 373 nm; in data set [5], 1762 nm; in data set [6], 139 kCounts; in data set [7], 290 kCounts; in data set [8], 300 kCounts. For the same compound, the values for the Activity in [9] and in data set [10] were 130 kCounts and 343 nm, respectively. The inhibition in [2] is over 90%. The compound also showed an IC90 in data set [3] of 1.75 µg/mL (≈ 7.53 µM).

For the origin of these results see ChEMBL document CHEMBL4184222, “A multifaceted approach to identify non-specific enzyme inhibition: Application to Mycobacterium tuberculosis shikimate kinase” (Bioorg Med Chem Lett, 2018).
